Experimental data: the NIST ThermoML archive (doi:10.1016/j.jct.2016.03.026)
Where “and” joins values, the source holds several entries; their conditions need not be identical. Identical values can stand only once.

Experiment: xn = mol fraction of the nth substance listed
Settings: Fluid (supercritical or subcritical phases); for speed of sound: Frequency=5 MHz, Pulse-echo method, x1 = 0.925; for mass density: 263.15 K, Vibrating tube method, x1 = 0.97

O=C=O [carbon dioxide] + CO
speed of sound
Settings	263.13 K	263.14 K
7970 kPa	694.6 m/s and 693.1 m/s	694.8 m/s and 695.2 m/s
9960 kPa	–	715.4 m/s
9990 kPa	715.1 m/s	–
10000 kPa	714.3 m/s	–
10020 kPa	–	715.9 m/s
14940 kPa	760.5 m/s	–
14950 kPa	–	760.8 m/s
14960 kPa	759.3 m/s	–
14990 kPa	–	761 m/s
19990 kPa	799.6 m/s	801 m/s
20000 kPa	800.7 m/s	–
20020 kPa	–	800.7 m/s
24970 kPa	836 m/s	836.4 m/s
24980 kPa	835.1 m/s	–
24990 kPa	–	836.3 m/s
29960 kPa	867.4 m/s	868.8 m/s
29990 kPa	868.4 m/s	–
30000 kPa	–	868.9 m/s
34950 kPa	–	898.5 m/s
34980 kPa	–	898.5 m/s
34990 kPa	898.5 m/s	–
35000 kPa	897.7 m/s	–
39950 kPa	926.1 m/s	–
39970 kPa	925.5 m/s	–
39990 kPa	–	926.5 m/s and 926.8 m/s
44970 kPa	952.1 m/s	–
44980 kPa	951.6 m/s	–
45030 kPa	–	952.7 m/s
45040 kPa	–	952.8 m/s
49950 kPa	–	977.1 m/s
49960 kPa	–	977.1 m/s
49970 kPa	977 m/s and 976.2 m/s	–
54950 kPa	999.5 m/s	–
54980 kPa	–	1000.5 m/s
54990 kPa	1000.3 m/s	–
55010 kPa	–	1000.5 m/s
59950 kPa	1021.6 m/s	1022.5 m/s
59970 kPa	–	1022.9 m/s
59990 kPa	1022.6 m/s	–
64970 kPa	–	1043.9 m/s and 1044.2 m/s
64980 kPa	1043.7 m/s	–
65000 kPa	1043 m/s	–
69950 kPa	–	1064.3 m/s
69960 kPa	1063.9 m/s	–
69990 kPa	–	1064.1 m/s
70000 kPa	1063.4 m/s	–
74960 kPa	1083.5 m/s and 1082.7 m/s	–
74970 kPa	–	1083.7 m/s
74990 kPa	–	1084.1 m/s
79980 kPa	1101.6 m/s	–
79990 kPa	–	1102.8 m/s
80000 kPa	1102.6 m/s	1102.8 m/s
89950 kPa	–	1138.4 m/s
89990 kPa	1137.3 m/s	–
90000 kPa	1138.2 m/s	–
90020 kPa	–	1138.8 m/s
99980 kPa	–	1172.1 m/s
99990 kPa	1171.5 m/s	–
100000 kPa	1170.8 m/s	1171.8 m/s
109970 kPa	1202.4 m/s	–
109980 kPa	1203.2 m/s	1203.3 m/s
110000 kPa	–	1203.8 m/s
119950 kPa	1232.3 m/s	–
119980 kPa	1233.2 m/s	1233.5 m/s
120000 kPa	–	1233.4 m/s
129980 kPa	1261.7 m/s	–
129990 kPa	1260.9 m/s	–
130000 kPa	–	1262 m/s
130010 kPa	–	1262.1 m/s
139970 kPa	1288.8 m/s	–
139980 kPa	1288.1 m/s	1289.1 m/s
140010 kPa	–	1289.5 m/s
149950 kPa	1315 m/s	1315.1 m/s
149970 kPa	1314.1 m/s	–
150000 kPa	–	1315.4 m/s
159950 kPa	–	1340.4 m/s
159960 kPa	–	1340.2 m/s
159970 kPa	1340 m/s	–
159980 kPa	1339.2 m/s	–
169960 kPa	–	1364.5 m/s
169980 kPa	–	1364.2 m/s
170010 kPa	1364.1 m/s	–
170040 kPa	1363.4 m/s	–
179970 kPa	–	1388 m/s
179990 kPa	–	1387.5 m/s
180000 kPa	1386.5 m/s	–
180020 kPa	1387.5 m/s	–
190000 kPa	1409.9 m/s	1410.3 m/s
190010 kPa	1409 m/s	–
190020 kPa	–	1409.9 m/s

Settings	mass density [kg/m3]
4000 kPa	989.7
4025 kPa	990.23
4050 kPa	990.17
4075 kPa	990.12
4100 kPa	990.09
4125 kPa	990.27
4150 kPa	990.42
4175 kPa	990.57
4200 kPa	990.66
4225 kPa	990.83
4250 kPa	990.91
4275 kPa	991.06
4300 kPa	991.18
4325 kPa	991.32
4350 kPa	991.48
4375 kPa	991.65
4400 kPa	991.73
4425 kPa	991.89
4450 kPa	992.03
4475 kPa	992.14
4500 kPa	992.26
4525 kPa	992.39
4550 kPa	992.55
4575 kPa	992.63
4600 kPa	992.8
4625 kPa	992.88
4650 kPa	993.04
4675 kPa	993.21
4700 kPa	993.29
4725 kPa	993.45
4750 kPa	993.53
4775 kPa	993.7
4800 kPa	993.78
4825 kPa	993.94
4850 kPa	994.11
4875 kPa	994.19
4900 kPa	994.35
4925 kPa	994.43
4950 kPa	994.6
4975 kPa	994.76
5000 kPa	994.84
5025 kPa	995.01
5050 kPa	995.09
5075 kPa	995.25
5100 kPa	995.34
5125 kPa	995.5
5150 kPa	995.58
5175 kPa	995.74
5200 kPa	995.91
5225 kPa	995.99
5250 kPa	996.15
5275 kPa	996.24
5300 kPa	996.4
5325 kPa	996.48
5350 kPa	996.65
5375 kPa	996.73
5400 kPa	996.89
5425 kPa	996.97
5450 kPa	997.14
5475 kPa	997.22
5500 kPa	997.38
5525 kPa	997.46
5550 kPa	997.63
5575 kPa	997.71
5600 kPa	997.87
5625 kPa	997.96
5650 kPa	998.12
5675 kPa	998.2
5700 kPa	998.37
5725 kPa	998.52
5750 kPa	998.61
5775 kPa	998.69
5800 kPa	998.86
5825 kPa	998.94
5850 kPa	999.1
5875 kPa	999.18
5900 kPa	999.35
5925 kPa	999.43
5950 kPa	999.59
5975 kPa	999.68
6000 kPa	999.84
6025 kPa	999.92
6050 kPa	1000.09
6075 kPa	1000.17
6100 kPa	1000.33
6125 kPa	1000.41
6150 kPa	1000.58
6175 kPa	1000.66
6200 kPa	1000.79
6225 kPa	1000.9
6250 kPa	1000.98
6275 kPa	1001.15
6300 kPa	1001.23
6325 kPa	1001.39
6350 kPa	1001.48
6375 kPa	1001.64
6400 kPa	1001.72
6425 kPa	1001.82
6450 kPa	1001.97
6475 kPa	1002.05
6500 kPa	1002.21
6525 kPa	1002.29
6550 kPa	1002.46
6575 kPa	1002.54
6600 kPa	1002.7
6625 kPa	1002.79
6650 kPa	1002.95
6675 kPa	1003.03
6700 kPa	1003.2
6725 kPa	1003.28
6750 kPa	1003.36
6775 kPa	1003.52
6800 kPa	1003.6
6825 kPa	1003.77
6850 kPa	1003.85
6875 kPa	1004.01
6900 kPa	1004.09
6925 kPa	1004.25
6950 kPa	1004.34
6975 kPa	1004.42
7000 kPa	1004.59
7025 kPa	1004.67
7050 kPa	1004.82
7075 kPa	1004.91
7100 kPa	1004.99
7125 kPa	1005.16
7150 kPa	1005.24
7175 kPa	1005.38
7200 kPa	1005.49
7225 kPa	1005.57
7250 kPa	1005.73
7275 kPa	1005.81
7300 kPa	1005.9
7325 kPa	1006.06
7350 kPa	1006.14
7375 kPa	1006.29
7400 kPa	1006.39
7425 kPa	1006.47
7450 kPa	1006.63
7475 kPa	1006.71
7500 kPa	1006.79
